Where a name gives a salt, the structure may show the parent alone.
Experiments:
[1] = molecular target: T1, KOR (Homo sapiens, UniProt P41145); assay: [35S]GTPγS binding assay, CHO-hKOR membranes; format: biochemical; conditions: for EC50: [35S]GTPγS, CHO human KOR membranes, read-out: KOR EC50; for functional profile at KOR (full/partial agonist): partial agonist <85% of the response to U69,593; for Emax: relative to reference full agonist U69,593, read-out: KOR % stim.
T1 construct: host or cells: CHO (CHO-hKOR)
Procedure: (§1) Efficacies are presented as percentage stimulation relative to the standard full agonists, [D-Ala^2,N-Me-Phe4,Gly-ol^5]enkephalin (DAMGO for MOR),[53] [D-Pen^2,D-Pen^5]enkephalin (DPDPE for DOR)[54] and N-methyl-2-phenyl-N-[(5R,7S,8S)-7-(pyrrolidin-1-yl)-1-oxaspiro[4.5]dec-8-yl]acetamide (U69,593 for KOR).[55]
(§2) Membranes from CHO cells expressing human opioid receptors were prepared in 50 mM Tris-HCl buffer (pH 7.7) according to a previously described procedure.[64] Cells expressing human opioid receptors grown at confluence were removed from the culture plates by scraping, homogenized in 50 mM Tris buffer (pH 7.7), using a Polytron homogenizer, then centrifuged once and washed by an additional centrifugation at 27 000g for 15 min, at 4 °C. The final pellet was resuspended in Tris buffer and stored at −80 °C until use. Protein content of brain and cell membrane preparation homogenates was determined by the method of Bradford using bovine serum albumin as the standard.[65]
(§3) Binding of [^35S]GTPγS to membranes from CHO cells stably expressing the human opioid receptors was conducted according to the published procedures.[49],[64] Cell membranes (5–10 μg) in 20 mM HEPES, 10 mM MgCl2, and 100 mM NaCl (pH 7.4) were incubated with 0.05 nM [^35S]GTPγS, 10 μM GDP, and various concentrations of test compound in a final volume of 1 mL, for 60 min at 25 °C. Nonspecific binding was determined using 10 μM GTPγS, and the basal binding was determined in the absence of test ligand. Samples are filtered over glass Whatman glass GF/B fiber filters and counted as described for binding assays. All experiments were performed in duplicate and repeated at least three times.
(§4) Data were analyzed and graphically processed using the GraphPad Prism 5.0 Software (GraphPad Prism Software Inc., San Diego, CA). For in vitro assays, inhibition constant (Ki in nM), potency (EC50 in nM), and efficacy (% stimulation) values were determined from concentration–response curves by nonlinear regression analysis. The Ki values were determined by the method of Cheng and Prusoff.[66] In the [^35S]GTPγS binding assays, efficacy was determined relative to the reference full opioid agonists, DAMGO (MOR), DPDPE (DOR), and U69,593 (KOR). In vitro data are presented as mean ± SEM of three to four independent experiments each performed in duplicate. […] Each experimental group included six to seven mice. Data were statistically evaluated using one-way ANOVA with Tukey’s post hoc test for multiple comparisons with significance set at P < 0.05.

[2] = molecular target: T2, DOR (Homo sapiens, UniProt P41143); assay: [35S]GTPγS binding assay, CHO-hDOR membranes; format: biochemical; conditions: for increased agonist potency at DOR vs MOR: [35S]GTPγS EC50; for EC50: [35S]GTPγS, CHO human DOR membranes; for Emax: relative to reference full agonist DPDPE, read-out: DOR % stim.
T2 construct: host or cells: CHO (CHO-hDOR)
Procedure: as §1, §2, §3, §4

[3] = molecular target: T3, DOR (Rattus norvegicus, UniProt P33533); assay: competition radioligand binding, rat brain membranes, [3H][Ile5,6]deltorphin II; conditions: rat brain membranes; read-out: opioid receptor binding Ki DOR
T3 construct: Membranes were prepared from Sprague-Dawley rat brains or guinea-pig brains according to the described procedures; tissue Labortierkunde und Laborgenetik, Medizinische Universität Wien; host or cells: Sprague-Dawley rat brain without cerebella
Procedure: (§5) Competition binding assays using rat brain (MOR and DOR) and guinea-pig brain (KOR) membranes (Table 1) were performed according to published procedures.[44],[49] […] In addition, we have assessed binding at the human opioid receptors stably transfected in Chinese hamster ovary (CHO) cells (Table S1).
(§6) Membranes were prepared from Sprague-Dawley rat brains or guinea-pig brains according to the described procedures.[44],[45] Brains without cerebella were homogenized on ice in 5 vol/wt of ice-cold 50 mM Tris-HCl buffer (pH 7.4) and diluted in 30 vol/wt of the same buffer. After centrifugation at 40 000g for 20 min at 4 °C, the pellets were resuspended in 30 vol/wt of 50 mM Tris-HCl buffer (pH 7.4) and incubated at 37 °C for 30 min. The centrifugation step described above was repeated, and the final pellets were resuspended in 5 vol/wt of 50 mM Tris-HCl buffer (pH 7.4) containing 0.32 M sucrose and stored at −80 °C until use.
(§7) Rat brain membranes were incubated with either [^3H]DAMGO (1 nM, 45 min, 35 °C) or [^3H][Ile^5,6]deltorphin II (0.5 nM, 45 min, 35 °C) for labeling MOR or DOR receptors, respectively. Guinea-pig brain membranes were incubated with [^3H]U69,593 (1 nM, 30 min, 30 °C) for labeling KOR. Binding assays with CHO cell membranes were conducted at 25 °C for 60 min using [^3H]DAMGO (1 nM) or [^3H]diprenorphine (0.2 nM) for labeling MOR or DOR, respectively. Nonspecific binding was determined using 10 μM naloxone (rodent brain) or 1–10 μM of the unlabeled counterpart of each radioligand (CHO cells). Reactions were terminated by rapid filtration through Whatman glass fiber GF/C filters. Filters were washed three times with 5 mL of ice-cold 50 mM Tris-HCl buffer (pH 7.4) using a Brandel M24R cell harvester (Gaithersburg, MD). Radioactivity retained on the filters was counted by liquid scintillation counting using a Beckman Coulter LS6500 (Beckman Coulter Inc., Fullerton, CA). All binding experiments were performed in duplicate and repeated at least three times.
as §4

[4] = molecular target: T4, KOR (Cavia porcellus, UniProt P41144); assay: competition radioligand binding, guinea-pig brain membranes, [3H]U69,593; conditions: guinea-pig brain membranes; read-out: opioid receptor binding Ki KOR
T4 construct: Membranes were prepared from Sprague-Dawley rat brains or guinea-pig brains according to the described procedures; tissue Labortierkunde und Laborgenetik, Medizinische Universität Wien; host or cells: guinea-pig brain without cerebella
Procedure: as §5, §6, §7, §4

[5] = molecular target: T5, MOR (Rattus norvegicus, UniProt P33535); assay: competition radioligand binding, rat brain membranes, [3H]DAMGO; conditions: for Ki: rat brain membranes, read-out: opioid receptor binding Ki MOR; for Ki ratio MOR/DOR/KOR: from Ki in rat (MOR, DOR) and guinea-pig (KOR) brain membranes
T5 construct: Membranes were prepared from Sprague-Dawley rat brains or guinea-pig brains according to the described procedures; tissue Labortierkunde und Laborgenetik, Medizinische Universität Wien; host or cells: Sprague-Dawley rat brain without cerebella
Procedure: as §5, §6, §7, §4

[6] = test system: male CD1 mice; assay: acetic acid-induced writhing assay after sc administration; format: in vivo, mouse; conditions: for ED50: Mus musculus, 0.5 h, read-out: ED50 (95% CI), mice, sc, inhibition of writhing 30 min after drug administration
Procedure: Solutions of test compounds were prepared in sterile physiological 0.9% saline and further diluted to working doses in saline solution. Test compounds or saline (control) were administered by sc route in a volume of 10 μL/1 g of body weight. All doses are expressed in terms of salts. Separate groups of mice received the respective dose of compound, and individual mice were only used once for behavioral testing.
Writhing was induced in male CD1 mice by ip injection of a 0.6% acetic acid aqueous solution as described previously.[48],[62] Groups of mice were administered sc different doses of test compound or saline (control), and 5 min prior to testing (25 min after drug or saline), each animal received an ip injection of acetic acid solution. Each mouse was placed in individual transparent Plexiglas chambers, and the number of writhes was counted during a 10 min observation period. […] For the antagonism study, naloxone methiodide was sc co-administered with the respective opioid agonist, and writhing was assessed as described above.
as §4

[7] = molecular target: T6, MOR (Homo sapiens, UniProt P35372); assay: [35S]GTPγS binding assay, CHO-hMOR membranes; format: biochemical; conditions: for EC50: [35S]GTPγS, CHO human MOR membranes, read-out: MOR EC50; for functional profile at MOR (full/partial agonist): full agonist ≥85% of the response to DAMGO; for Emax: relative to reference full agonist DAMGO, read-out: MOR % stim.
T6 construct: host or cells: CHO (CHO-hMOR)
Procedure: as §1, §2, §3, §4

SMILES | EC50 [1] | functional profile at KOR (full/partial agonist) [1] | Emax [1] | increased agonist potency at DOR vs MOR [2] | EC50 [2] | Emax [2] | Ki [3] | Ki [4] | Ki [5] | ED50 [6] | EC50 [7] | functional profile at MOR (full/partial agonist) [7] | Emax [7] | ED50 (95% CI) ([6]; mice, inhibition of writhing 30 min after drug administration) | Ki ratio MOR/DOR/KOR [5] | increase in MOR binding affinity vs comparator ([5]; rat brain, 17b vs 4b, 16a/b vs 7a/b, 22a/b vs 7a, 7b and 9b, 14a vs 14b)
CO[C@@]12CC[C@@H](N[C@H](C(=O)O)C(C)C)[C@@H]3Oc4c(O)ccc5c4[C@@]31CCN(C)[C@@H]2C5 [Compound 7b, (2S)-2-[(4,5α-Epoxy-3-hydroxy-14β-methoxy-17-methylmorphinan-6β-yl)amino]-3-methylbutyric Acid Dihydrochloride] | 1120 ± 411 nM | partial agonist | 68 ± 10% | 2–4 times | 5.73 ± 2.48 nM | 96 ± 9% | 3.52 ± 0.04 nM | 305 ± 39 nM | 3.04 ± 0.12 nM | 0.117 mg/kg | 11.7 ± 5.7 nM | partial agonist | ~80% | – | – | –
CO[C@@]12CC[C@H](N[C@@H](Cc3ccc(O)cc3)C(=O)O)[C@@H]3Oc4c(O)ccc5c4[C@@]31CCN(C)[C@@H]2C5.Cl.Cl [Compound 9a, (2S)-2-[(4,5α-Epoxy-3-hydroxy-14β-methoxy-17-methylmorphinan-6α-yl)amino]-3-(4-hydroxyphenyl)propionic Acid Dihydrochloride] | 100 ± 6 nM | – | 62 ± 8% | – | 1.76 ± 0.22 nM | 88 ± 6% | 2.18 ± 0.98 nM | 39.5 ± 0.2 nM | 0.83 ± 0.04 nM | < 0.02 mg/kg | 1.87 ± 0.44 nM | – | 92 ± 2% | 14.6 (5.15–41.7) μg/kg | – | –
CO[C@@]12CC[C@H](N[C@@H](Cc3c[nH]c4ccccc34)C(=O)O)[C@@H]3Oc4c(O)ccc5c4[C@@]31CCN(C)[C@@H]2C5 [Compound 10a, (2S)-2-[(4,5α-Epoxy-3-hydroxy-14β-methoxy-17-methylmorphinan-6α-yl)-amino]-3-(1H-indolo-3yl)propionic Acid Dihydrochloride] | 70.1 ± 20.5 nM | – | 61 ± 8% | – | 2.52 ± 1.41 nM | 102 ± 8% | 1.02 ± 0.12 nM | 25.1 ± 9.3 nM | 0.36 ± 0.01 nM | – | 0.51 ± 0.34 nM | – | 93 ± 9% | – | – | –
CO[C@@]12CC[C@H](N[C@@H](CC(=O)O)C(=O)O)[C@@H]3Oc4c(O)ccc5c4[C@@]31CCN(C)[C@@H]2C5 [Compound 13a, (2S)-2-[(4,5α-Epoxy-3-hydroxy-14β-methoxy-17-methylmorphinan-6α-yl)-amino]butanedioic Acid Dihydrochloride] | 2990 ± 659 nM | – | 83 ± 17% | – | 10.1 ± 3.8 nM | 97 ± 3% | 14.6 ± 3.6 nM | 50.2 ± 9.2 nM | 1.36 ± 0.05 nM | 0.0382 mg/kg | 4.1 ± 1.29 nM | – | 90 ± 7% | – | 1/11/37 | –
CO[C@@]12CC[C@@H](N[C@@H](CC(=O)O)C(=O)O)[C@@H]3Oc4c(O)ccc5c4[C@@]31CCN(C)[C@@H]2C5 [Compound 13b, (2S)-2-[(4,5α-Epoxy-3-hydroxy-14β-methoxy-17-methylmorphinan-6β-yl)amino]butanedioic Acid Dihydrochloride] | 753 ± 358 nM | – | 49 ± 7% | – | 11.8 ± 2.2 nM | 101 ± 1% | 22.6 ± 2.2 nM | 351 ± 43 nM | 3.42 ± 0.05 nM | – | 1.45 ± 0.01 nM | partial agonists | ~70% | – | – | –
CO[C@@]12CC[C@H](N[C@@H](C(=O)O)C(C)C)[C@@H]3Oc4c(O)ccc5c4[C@@]31CCN(C)[C@@H]2C5 [Compound 16a] | 2220 ± 818 nM | full agonists | 96 ± 16% | ca. 4 times | 1.12 ± 0.69 nM | 93 ± 4% | 1.93 ± 0.24 nM | 202 ± 3 nM | 1.7 ± 0.09 nM | – | 4.51 ± 2.35 nM | – | 105 ± 4% | – | – | 2–3 times
CO[C@@]12CC[C@@H](NCCC(=O)O)[C@@H]3Oc4c(O)ccc5c4[C@@]31CCN(C)[C@@H]2C5 [Compound 20b, 3-[(4,5α-Epoxy-3-hydroxy-14β-methoxy-17-methylmorphinan-6β-yl)amino]propionic Acid Dihydrochloride] | 622 ± 311 nM | – | 67 ± 12% | – | 20.1 ± 10.7 nM | 99 ± 3% | 13.9 ± 1.7 nM | 71.4 ± 4.6 nM | 1.04 ± 0.04 nM | – | 5.74 ± 0.47 nM | – | ~80% | – | 1/13/69 | –
CO[C@@]12CC[C@@H](NCCCC(=O)O)[C@@H]3Oc4c(O)ccc5c4[C@@]31CCN(C)[C@@H]2C5 [Compound 21b] | 3400 ± 1980 nM | full agonists | 74 ± 5% | 2–4 times | 6.06 ± 1.07 nM | 103 ± 6% | 6.61 ± 0.67 nM | 147 ± 13 nM | 1.41 ± 0.13 nM | – | 12.3 ± 6.8 nM | – | 86 ± 7% | – | – | –

Source: article PMC6348443 (Journal of Medicinal Chemistry, 2018)
